In patent publication US6297230A, “Cyanoaziridines for treating cancer” (priority 2000, dated 2001):
≈ marks a conversion by molar mass, not a printed value. Where two headings read alike, the source gives them in different places.

How the values were obtained:
[1] = tested on: 8226/S myeloma cells; test: MTT growth inhibition, parental 8226 myeloma cells; assay type: cell-based, human
Description: (§1) Microculture Tetrazolium (MTT) Assay for Tumor Cells
(§2) Tumors are disaggregated into single cell suspensions using mechanical, hypoosmotic, and/or enzymatic (trypsin) methods. The cells are plated at a concentration of 3-5×10^4 per […] well into plastic 96-well plates. Growth medium containing 5-10% (vol/vol) heat-inactivated fetal bovine serum and penicillin/streptomycin (both […]) are added prior to incubation at 37° C. for 6 days. Afterwards the medium containing the drug is removed, the cells are centrifuged in fresh medium or phosphate-buffered saline (pH 7.4). A tetrazolium dye, […]-2,5-diphenyl tetrazolium (MTT), is then added. (Mossman, T., J Immunol 65:55-63, 1983.) This dye forms a colored formazan product upon activation by mitochondrial reductases in viable cells. Typically, the formazan product is solubilized in acid-propanol or DMSO. The intensity of the color is proportional to viable cell numbers and this is quantitated by spectrophotometric absorbance at 570 nm on a micro ELISA plate reader. The results are calibrated in % control absorbance from untreated tumor cells. (Alley, et al., Cancer Res 48:589-601, 1988.)
(§3) The following unpublished studies were performed in vitro to develop and characterize a human myeloma cell line with resistance to imexon-induced cytotoxicity. The original (parental) 8226 cell line was developed by Matsuoka, et al. (Matsuoka, et al., Proc Soc Exp Biol Med 125:1246-1250, 1967). It is a lymphoblastoid cell line which stains for lambda light immunoglobulin production. It grows in vitro in suspension culture (non-adherent) and forms tumors when injected into SCID mice. (Skehan, et al., J Natl Cancer Inst 82:1107-1112, 1990.)
(§4) One exciting feature of our novel compounds is, that they work on imexon-resistant cells. An imexon-resistant 8226 myeloma cell line was selected by continuously exposing cells to gradually increasing concentrations of imexon up to 3.25 mg/mL. This cell line has slightly longer cell doubling time than 8226 sensitive cells (24 vs 20 hours). […] The dose response curve for imexon continuous exposure was determined using MTT assay. Each data point represents the mean of three experiments performed in 8 replicates.
(§5) We compared IC50 concentrations and there is a 4-fold resistance observed for the 8226/I-R cell line when the cells were continuously exposed to imexon for […] at 37° C. The degree of resistance was relatively unstable in the absence of the drug, with the resistant cells losing substantial resistance when maintained in imexon-free medium for 20 weeks (FIG. 2).
(§6) IC50 was measured by MTT assay. IC50 refer to the concentration by drug that results in 50% growth inhibition. A minimum of 2 assays were performed for each drug following 250 mg/mL imexon is equivalent to 6.5 cGy radiation in sensitive cells.
(§7) Using the colorimetric microculture tetrazolium (MTT) assay, imexon and 25-related analogs were studied for tumor growth inhibition in vitro. Imexon-induced DNA single strand breaks were assessed by alkaline elution. Cells were exposed to imexon for 1 hour prior to start of experiment. The fraction of ^14 C-labeled DNA retained on the filter is plotted against the time of elution. The cells included parental 8226 myeloma cells and the 8226 imexon-resistant cells exposed to drug (imexon or analog) continuously for 10 days at 37° C. At the end of the exposure period, the cells were analyzed for viability using the formazan-forming tetrazolium dye (MTT) assay.

[2] = tested on: L-1210 MDR leukemia cells; test: MTT growth inhibition, multidrug-resistant L-1210 leukemia cells; assay type: cell-based, mouse; conditions: for IC50: Mus musculus, L1210, 192 h
Description: as §2
In addition, the imexon analogs have also been tested in a multidrug-resistant (MDR) mouse L-1210 leukemia cell line.
L-1210 MDR Cells represent a multidrug-resistant cell line developed for resistance to the alkylating agent mitomycin C. (Dorr, et al., Biochem Pharmacol 36(19):3115-3120, 1987.) This cell line has the same general growth characteristics of the parental line, but is cross-resistant to numerous natural-product based anticancer agents. This includes anthracyclines such as doxorubicin (Adriamycin®) and vinca alkaloids such as vincristine or vinblastine.
(§8) *Drug continuously present for 8 days; IC50 measured by MTT dye

[3] = tested on: 8226/I-R myeloma cells; test: MTT growth inhibition, imexon-resistant 8226 myeloma cells; assay type: cell-based, human; conditions: for Fold Resistance of IC50 R/IC50 's: imexon-resistant vs sensitive 8226; for Cross-resistance of imexon-resistant cells: 8226 imexon-resistant cells
Description: as §1, §2, §3, §4, §5, §6, §7

[4] = tested on: L-1210 leukemia cells (sensitive); test: MTT growth inhibition, sensitive L-1210 leukemia cells; assay type: cell-based, mouse; conditions: Mus musculus, L1210, 192 h
Description: as §2, with “1988.) […]” for “1988.)”
Murine L-1210 Leukemia Cells were first described by Law, et al. from a female DBA/2 mouse exposed to topical methylcholanthrene. (Law, et al., J Natl Cancer Inst 10:179-192, 1949.) The cells represent a lymphocytic lineage and are highly tumorigenic in syngeneic DBA/2 mice, producing lethality typically 10-14 days after inoculation. This cell line has been used extensively to characterize the antitumor activity of chemotherapeutic agents. (Goldin, et al., Cancer Res (Cancer Chemotherapy Screening Data IX) 21:27-92, 1961.) The L-1210 cells have a model 40-41 chromosomes and a very high plating efficiency in suspension cultures in vitro.
as §8

[5] = tested on: OVCAR-3 ovarian carcinoma cells; conditions: clinically relevant concentrations in vitro; cited from earlier work
[6] = tested on: WiDr MITOX cells; conditions: cited from earlier work
[7] = tested on: L-1210 MDR leukemia cells; conditions: cited from earlier work
[8] = Homo sapiens, Table 5, Sensitive (parental) 8226, read-out: IC50
[9] = Homo sapiens, Table 5, imexon-resistant 8226, read-out: IC50
[10] = Homo sapiens, 8226/S, MTT, read-out: IC50
[11] = Homo sapiens, 8226/I-R, MTT, read-out: IC50

Compound: N#CC1CN1C(=O)Nc1ccc(Cl)c(Cl)c1 (centres unmarked) [AMP 408, 2-Cyanoaziridine-1-[N-(3,4-dichlorophenyl)]carboxamide]
- IC50 [1, 8]: 0.27 µg/mL
- Enhanced potency: decrease in IC50 against myeloma cell growth ([1]; compared with imexon): > 40%
- Fold Resistance of IC50 's (MDR/S) ([2]; L-1210 MDR vs sensitive, 11520 min): 2.7
- IC50 ([2]; MDR L-1210, drug continuously present 8 days, read-out: IC50): 1.9 µg/mL (≈ 7.42 µM)
- IC50 [3, 9]: 0.68 µg/mL
- Fold Resistance of IC50 R/IC50 's ([3]; Table 5): 2.5
- IC50 ([4]; Sensitive L-1210, drug continuously present 8 days, read-out: IC50): 0.7 µg/mL (≈ 2.73 µM)

Compound: N#CC1CN1C(N)=O (centres unmarked) [AMP 409, 2-cyanoaziridine-1-carboxamide, reference compound]
- IC50 [1, 8]: 32 µg/mL
- IC50 [2]: > 10 µg/mL
- IC50 [3, 9]: 48 µg/mL
- Fold Resistance of IC50 R/IC50 's ([3]; Table 5): 1.5
- IC50 [4]: > 10 µg/mL

Compound: N.N.O=C([O-])C1(C(=O)[O-])CCC1.[Pt+2] [Carboplatin, reference compound]
- IC50 ([1]; 8226/S, MTT, read-out: IC50): 9700 nM
- IC50 ([3]; 8226/I-R, MTT, read-out: IC50): 16000 nM
- Cross-resistance of imexon-resistant cells ([3]; MTT): partial cross-resistance
- Fold Resistance (IC50 resistant cells/IC50 sensitive cells) ([3]; Table 4, 8226/I-R vs 8226/S): 1.65

Compound: N.N.[Cl][Pt][Cl] [Cisplatin, reference compound]
- IC50 ([1]; 8226/S, MTT, read-out: IC50): 1100 nM
- IC50 ([3]; 8226/I-R, MTT, read-out: IC50): 2000 nM
- Cross-resistance of imexon-resistant cells ([3]; MTT): partial cross-resistance
- Fold Resistance (IC50 resistant cells/IC50 sensitive cells) ([3]; Table 4, 8226/I-R vs 8226/S): 1.85
- Resistance of OVCAR-3 [5]: resistant in vitro to clinically relevant concentrations

Compound: N[C@@H](Cc1ccc(N(CCCl)CCCl)cc1)C(=O)O [Melphalan, reference compound]
- IC50 ([1]; Homo sapiens): 62 nM
- IC50 ([3]; Homo sapiens): 5300 nM
- Fold Resistance (IC50 resistant cells/IC50 sensitive cells) ([3]; Table 4, 8226/I-R vs 8226/S): 0.81
- Resistance of OVCAR-3 [5]: resistant in vitro to clinically relevant concentrations

Compound: CO[C@@]12[C@H](COC(N)=O)C3=C(C(=O)C(C)=C(N)C3=O)N1C[C@@H]1N[C@@H]12 [Mitomycin C, reference compound]
- IC50 [1, 10]: 66 nM
- Cross-resistance of imexon-resistant cells ([3]; MTT): partial resistance
- IC50 [3, 11]: 99 nM
- Fold Resistance (IC50 resistant cells/IC50 sensitive cells) ([3]; human, 8226 myeloma cells): 1.50

Compound: CC[C@]1(O)C[C@H]2CN(CCc3c([nH]c4ccccc34)[C@@](C(=O)OC)(c3cc4c(cc3OC)N(C=O)[C@H]3[C@@](O)(C(=O)OC)[C@H](OC(C)=O)[C@]5(CC)C=CCN6CC[C@]43[C@@H]65)C2)C1 [Vincristine, reference compound]
- IC50 [1, 10]: 2.8 nM
- Cross-resistance of imexon-resistant cells ([3]; MTT): remains sensitive
- IC50 [3, 11]: 2.4 nM
- Fold Resistance (IC50 resistant cells/IC50 sensitive cells) ([3]; Table 4, 8226/I-R vs 8226/S): 0.88
- Fold resistance of WiDr MITOX cells [6]: 2 fold
- Cross-resistance of L-1210 MDR [7]: cross-resistant

Compound: O=C1c2c(O)ccc(O)c2C(=O)c2c(NCCNCCO)ccc(NCCNCCO)c21 [mitoxantrone]
- Fold resistance of WiDr MITOX cells [6]: 21 fold

Compound: CC[C@]1(O)C[C@@H]2CN(CCc3c([nH]c4ccccc34)[C@@](C(=O)OC)(c3cc4c(cc3OC)N(C)[C@H]3[C@@](O)(C(=O)OC)[C@H](OC(C)=O)[C@]5(CC)C=CCN6CC[C@]43[C@@H]65)C2)C1 [vinblastine]
- Cross-resistance of L-1210 MDR [7]: cross-resistant

Compound: Bleomycin [reference compound]
- IC50 ([1]; 8226/S, MTT, bleomycin): 7.0 µg/mL
- IC50 ([3]; 8226/I-R, MTT, bleomycin): 7.8 µg/mL
- Cross-resistance of imexon-resistant cells ([3]; MTT): remains sensitive
- Fold Resistance (IC50 resistant cells/IC50 sensitive cells) ([3]; Table 4, 8226/I-R vs 8226/S): 1.11
